Here are results for 30 compounds from patent US9139577B2, “Sulfoximine substituted quinazolines for pharmaceutical compositions” (Boehringer Ingelheim International GmbH, priority 2013, dated 2015).

In assay [1] the test system is MNK2 (MNK2a or MNK2b) or MNK1. The settings on record: cell culture cells transfected with MNK2 (MNK2a or MNK2b) or MNK1; cited from earlier work.
In a further assay the target is MNK1 (Homo sapiens (Human), UniProt Q9BUB5). Nature of the assay: MNK1 in vitro kinase assay (Assay 3), Z'-LYTE. In kind it is biochemical. The settings on record: for inhibition at 1 µM: compound concentration of 1 μM, read-out: MNK1 % INH. The method in brief: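 Pre-activated GST-MNK1a phosphorylated a FRET peptide for 60 min at room temperature in HEPES pH 7.5 buffer with Mg2+/Mn2+, EGTA and DTT, with 1% DMSO final. Protease development followed for 60 min.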

A further assay addresses MNK2a (Homo sapiens (Human), UniProt Q9HBH9). Nature of the assay: MNK2a in vitro kinase assay (Assay 2), ADP-Glo. It is filed as biochemical. The settings on record: read-out: MNK2 IC50.

A word on the IC50: it is the concentration that gives 50% inhibition.

Sequence of MNK2a (Q9HBH9 whole entry): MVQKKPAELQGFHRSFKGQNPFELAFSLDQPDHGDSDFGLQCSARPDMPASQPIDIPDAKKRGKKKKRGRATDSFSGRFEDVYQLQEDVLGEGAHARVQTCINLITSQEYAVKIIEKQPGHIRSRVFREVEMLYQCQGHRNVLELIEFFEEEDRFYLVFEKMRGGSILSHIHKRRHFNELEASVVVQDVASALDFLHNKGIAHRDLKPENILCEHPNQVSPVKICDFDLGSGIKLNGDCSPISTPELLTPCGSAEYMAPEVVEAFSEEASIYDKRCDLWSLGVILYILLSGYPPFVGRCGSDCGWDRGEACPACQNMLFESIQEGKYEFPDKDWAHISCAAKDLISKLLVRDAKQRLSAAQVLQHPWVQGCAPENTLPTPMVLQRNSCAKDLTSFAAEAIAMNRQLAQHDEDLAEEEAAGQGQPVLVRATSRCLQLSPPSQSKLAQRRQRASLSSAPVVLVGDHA
Sequence of MNK1 (Q9BUB5 other isoform, or with tags, fused parts or gaps): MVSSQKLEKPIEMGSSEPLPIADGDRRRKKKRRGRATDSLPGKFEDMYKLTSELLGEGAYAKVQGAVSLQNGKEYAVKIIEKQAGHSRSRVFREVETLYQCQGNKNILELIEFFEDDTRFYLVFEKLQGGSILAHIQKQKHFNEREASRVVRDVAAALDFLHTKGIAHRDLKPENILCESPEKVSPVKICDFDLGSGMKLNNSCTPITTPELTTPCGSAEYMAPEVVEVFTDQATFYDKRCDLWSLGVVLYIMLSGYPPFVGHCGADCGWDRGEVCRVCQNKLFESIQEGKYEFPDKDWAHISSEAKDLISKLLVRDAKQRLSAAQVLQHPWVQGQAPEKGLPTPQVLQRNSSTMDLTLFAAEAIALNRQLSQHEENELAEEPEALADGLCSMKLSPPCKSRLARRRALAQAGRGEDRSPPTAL

In the case of `Nc1ncnc2n[nH]c(Nc3ccc(F)cc3)c12` [CGP57380], the “reduction of phosphorylated eIF4E” value in assay [1] was “strong reduction of phosphorylated eIF4E”.

On to `Cc1cc(N=S2(=O)CCCC2)cc2ncnc(Nc3ccc(F)cc3O[C@H](C)C(=O)N3CCCCC3)c12` [Example 4.067], for which the inhibition at 1 µM on MNK1 is 97%. In addition, the IC50 at MNK2a is 3 nM.

`CCN(C)C(=O)[C@@H](C)Oc1cc(F)ccc1Nc1ncnc2cc(N=S(C)(C)=O)cc(C)c12` [Example 4.068]: the inhibition at 1 µM at MNK1 worked out at 86%. Also, on MNK2a, the IC50 was found to be 4 nM.

For `Cc1cc(N=S(C)(C)=O)cc2ncnc(Nc3ccc(F)cc3O[C@H](C)C(=O)NCC(C)(C)O)c12` [Example 4.069], the inhibition at 1 µM at MNK1 stood at 93%. Moreover, on MNK2a, the IC50 was 6 nM.

Take `Cc1cc(N=S(C)(C)=O)cc2ncnc(Nc3ccc(F)cc3O[C@H](C)C(=O)NCC(F)(F)F)c12` [Example 4.071]: the figures for the 50% inhibitory concentration (IC50) against MNK1 and at MNK2a were 55 nM and 1 nM, respectively.

On to `Cc1cc(N=S2(=O)CCCC2)cc2ncnc(Nc3ccc(F)cc3O[C@H](C)C(=O)NCCO)c12` [Example 4.072], for which the inhibition at 1 µM at MNK1 was 98%. Also, the IC50 at MNK2a turned out to be 3 nM.

Consider `Cc1cc(N=S2(=O)CCCC2)cc2ncnc(Nc3ccc(F)cc3O[C@H](C)C(=O)NCC(F)(F)F)c12` [Example 4.074], for which the IC50 at MNK1 amounted to 38 nM; on MNK2a, 1 nM.

Turning to `Cc1cc(N=S2(=O)CCCC2)cc2ncnc(Nc3ccc(F)cc3O[C@H](C)C(=O)N[C@@H]3CCC[C@@H]3O)c12` [Example 4.075], the inhibition at 1 µM on MNK1 stood at 90%. Further, the IC50 on MNK2a turned out to be 9 nM.

For the compound `Cc1cc(N=S(C)(C)=O)cc2ncnc(Nc3ccc(Cl)cc3O[C@H](C)C(=O)N[C@@H](C)C(F)(F)F)c12` [Example 4.088], the IC50 against MNK1 turned out to be 36 nM; at MNK2a, 2 nM. Also, at MNK1, the inhibition at 1 µM was found to be 99%.

On to `C[C@@H](Oc1cc(F)ccc1Nc1ncnc2cc(N=S3(=O)CCC3)cc(F)c12)C(=O)NCC(F)(F)F` [Example 4.100], for which, at MNK1, the IC50 was found to be 14 nM and the inhibition at 1 µM is 97%. In addition, the IC50 at MNK2a amounted to 2 nM.

With `Cc1cc(N=S2(=O)CCC2)cc2ncnc(Nc3ccc(F)cc3O[C@H](C)C(=O)N[C@@H](C)C(F)(F)F)c12` [Example 4.104], the inhibition at 1 µM on MNK1 came to 100%. Also, on MNK2a, the IC50 stood at 1 nM.

As to `C[C@H](NC(=O)[C@@H](C)Oc1cc(F)ccc1Nc1ncnc2cc(N=S(C)(C)=O)cc(F)c12)C(F)(F)F` [Example 4.118], the values for the IC50 at MNK1 and at MNK2a were 21 nM and 3 nM, respectively. In addition, the inhibition at 1 µM at MNK1 worked out at 99%.

As to `C[C@H](NC(=O)[C@@H](C)Oc1cc(F)ccc1Nc1ncnc2cc(N=S3(=O)CCC3)cc(F)c12)C(F)(F)F` [Example 4.136], at MNK1, the IC50 is 29 nM and the inhibition at 1 µM was found to be 93%. In addition, on MNK2a, the IC50 was 1 nM.

Regarding `C[C@@H](Oc1cc(F)ccc1Nc1ncnc2cc(N=S3(=O)CCC3)cc(Cl)c12)C(=O)NCC(F)(F)F` [Example 4.138], the concentration for half-maximal inhibition (IC50) against MNK1 turned out to be 27 nM; on MNK2a, 1 nM. The inhibition at 1 µM at MNK1 came to 64%.

`Cc1cc(N=S(C)(C)=O)cc2ncnc(Nc3ccc(F)cc3O[C@@H](C)CNS(C)(=O)=O)c12` [Example 5.001]: the inhibition at 1 µM on MNK1 is 97%. The IC50 at MNK2a came to 1 nM.

For the compound `CC(=O)NC[C@H](C)Oc1cc(F)ccc1Nc1ncnc2cc(N=S(C)(C)=O)cc(C)c12` [Example 5.002], the inhibition at 1 µM on MNK1 was 88%. In addition, the IC50 at MNK2a turned out to be 7 nM.

Turning to `Cc1cc(N=S(C)(C)=O)cc2ncnc(Nc3ccc(F)cc3O[C@H](C)CNS(C)(=O)=O)c12` [Example 5.003], the inhibition at 1 µM on MNK1 was 38%. Besides, at MNK2a, the IC50 came to 83 nM.

As for `Cc1cc(N=S(C)(C)=O)cc2ncnc(Nc3ccc(F)cc3O[C@@H](C)CNC(=O)C(F)(F)F)c12` [Example 5.004], the IC50 on MNK1 amounted to 66 nM; at MNK2a, 2 nM.

Regarding `CC(=O)N1CCS(=O)(=Nc2cc(C)c3c(Nc4ccc(F)cc4O[C@H](C)c4cc(C)no4)ncnc3c2)CC1` [Example 5.005], on MNK1, the inhibition at 1 µM is 95%. For the same compound, the IC50 at MNK2a was 2 nM.

As for `CCNC(=O)NC[C@@H](C)Oc1cc(F)ccc1Nc1ncnc2cc(N=S(C)(C)=O)cc(C)c12` [Example 5.006], the inhibition at 1 µM at MNK1 was found to be 78%. Moreover, the IC50 at MNK2a is 29 nM.

Take `COCC(=O)N1CCS(=O)(=Nc2cc(C)c3c(Nc4ccc(F)cc4O[C@H](C)c4cc(C)no4)ncnc3c2)CC1` [Example 5.007]: the inhibition at 1 µM on MNK1 was 97%. For the same compound, the IC50 on MNK2a was determined as 4 nM.

`CCNC(=O)N1CCS(=O)(=Nc2cc(C)c3c(Nc4ccc(F)cc4O[C@H](C)c4cc(C)no4)ncnc3c2)CC1` [Example 5.008]: the IC50 at MNK1 was determined as 39 nM; at MNK2a, 2 nM.

Regarding `CC(=O)NC[C@@H](C)Oc1cc(F)ccc1Nc1ncnc2cc(N=S(C)(C)=O)cc(C)c12` [Example 5.009], the inhibition at 1 µM on MNK1 stood at 74%. For the same compound, at MNK2a, the half-inhibitory concentration (IC50) amounted to 35 nM.

For `Cc1cc(N=S(C)(C)=O)cc2ncnc(Nc3ccc(F)cc3O[C@H](C)CNC(=O)C(F)(F)F)c12` [Example 5.010], the inhibition at 1 µM on MNK1 was 62%. Besides, on MNK2a, the 50% inhibitory concentration (IC50) came out at 28 nM.

For the compound `Cc1cc(N=S(C)(C)=O)cc2ncnc(Nc3ccc(F)cc3O[C@H](C)CNS(=O)(=O)C(F)(F)F)c12` [Example 5.011], the inhibition at 1 µM at MNK1 worked out at 27%. At MNK2a, the IC50 is 99 nM.

On to `CCC(=O)NC[C@@H](C)Oc1cc(F)ccc1Nc1ncnc2cc(N=S(C)(C)=O)cc(C)c12` [Example 5.012], for which the inhibition at 1 µM on MNK1 was 61%. The 50% inhibitory concentration (IC50) on MNK2a was determined as 56 nM.

For `Cc1cc([C@@H](C)Oc2cc(F)ccc2Nc2ncnc3cc(N=S4(=O)CCN(C)CC4)cc(C)c23)on1` [Example 7.001], on MNK1, the inhibition at 1 µM amounted to 98%. For the same compound, the IC50 on MNK2a worked out at 1 nM.

In the case of `COc1cc(N=S(C)(C)=O)cc2ncnc(Nc3ccc(F)cc3OC(C)c3cc(C)no3)c12` (stereo not shown) [Example 7.003], the inhibition at 1 µM at MNK1 is 102%. The IC50 on MNK2a amounted to 2 nM.

For the compound `Cc1cc(N=S(C)(C)=O)cc2ncnc(Nc3ccc(F)cc3OC(C)C#N)c12` (stereo not shown) [Example 7.005], on MNK1, the inhibition at 1 µM was found to be 93%. The IC50 at MNK2a worked out at 3 nM.

With `Cc1cc(N=S2(=O)CCCC2)cc2ncnc(Nc3ccc(F)cc3OC(C)C#N)c12` (stereo not shown) [Example 7.008], the inhibition at 1 µM on MNK1 was determined as 99%. The IC50 at MNK2a was found to be 3 nM.
